IC50 data for 32 compounds are collected here from patent US8975265B2, “Substituted imidazo[1,2-a]pyrimidines and —pyridines” (Bayer Intellectual Property GmbH, priority 2010, dated 2015).

In test [1] the test system is KPL-4 breast cancer cell line. Put plainly: Tumor cell proliferation assay (CellTiter-Glo, 72 h), KPL-4. To be noted: KPL4, 72h drug exposure. In kind it is cell-based. How it is done:
Biological Assay 4.0: Tumor Cell Proliferation Assays
Compounds were tested in a cell-based assay that measures the capacity of the compounds to inhibit tumour cell proliferation following a 72h drug exposure. Cell viability is determined using CellTiter-Glow® (CTG, Promega, cat# G7571/2/3). The CellTiter-Glo® Luminescent Cell Viability Assay is a homogeneous method to determine the number of viable cells in culture. Detection is based on using the luciferase reaction to measure the amount of ATP from viable cells. The amount of ATP in cells correlates with cell viability. Within minutes after a loss of membrane integrity, cells lose the ability to synthesize ATP, and endogenous ATPases destroy any remaining ATP; thus the levels of ATP fall precipitously.
For each cell line assayed, cells were plated onto a separate plate for determination of […] at t=0 hour and t=72 hour time points. Following overnight incubation at 37° C., chemiluminescence values for the t=0 samples were determined after adding 10 μl medium and 100 μl CTG solution according to manufacture protocol. Plates for the t=72 hour time points were treated with compounds diluted into growth medium at ten times final concentration added in 10 μL to the cell culture plate. Cells were then incubated for 72 hours at 37° C. Chemiluminescence values for the t=72 hour samples were determined. […] Experiments were controlled using a reference compound as standard.

Test [2] concerns p-AKT1/2/3-S473 in KPL4 breast tumour cell line. Description: Cellular p-AKT1/2/3-S473 assay. In kind it is cell-based. As to conditions: KPL4 breast tumour cell line, 2 hours treatment; read-out: pAKT-S743 median IC50. The procedure:
The molecular mechanism of action was investigated in a set of experiments to assess the inhibition of the PI3K-AKT-mTOR pathway in responsive cell lines such as KPL4 breast tumour cell line (PIK3CAH1047R, HER20/E and hormone independent). The phospho-substrates of PI3K-AKT-mTOR axis were used as the read-outs to reflect pathway inhibition. Cells were seeded at 60-80% confluency per well in 96-well cell culture plates. After overnight incubation at 37° C. 5% CO2, cells were treated with compounds and vehicle at 37° C. for 2 hours. […] All measurements where at least done in duplicates and confirmed by independent repetition.
Alternatively pAKT-S473 was measured using the “Akt Duplex” of the MULTI-SPOT® Assay System (Fa. Meso Scale Discovery, Cat# N41100B-1) following manufacturers instructions. Each assay used 20 μg of protein extract and measured total AKT and p-AKT content simultaneously in one well. All measurements where at least done in duplicates and confirmed by independent repetition. Values for P-AKT are expressed as percentage of P-AKT level compared to total-AKT content of the extracts.

The target in test [3] is His-tagged human recombinant kinase full-length Akt1 (Homo sapiens (Human), UniProt P31749). Put plainly: Akt1 kinase assay (TR-FRET). In kind it is biochemical. As to conditions: 10 μM ATP; read-out: Akt1, median IC50. The procedure: Biological Assay 1.0: Akt1 Kinase Assay
His-tagged human recombinant kinase full-length Akt1, sequence (P31749 whole entry): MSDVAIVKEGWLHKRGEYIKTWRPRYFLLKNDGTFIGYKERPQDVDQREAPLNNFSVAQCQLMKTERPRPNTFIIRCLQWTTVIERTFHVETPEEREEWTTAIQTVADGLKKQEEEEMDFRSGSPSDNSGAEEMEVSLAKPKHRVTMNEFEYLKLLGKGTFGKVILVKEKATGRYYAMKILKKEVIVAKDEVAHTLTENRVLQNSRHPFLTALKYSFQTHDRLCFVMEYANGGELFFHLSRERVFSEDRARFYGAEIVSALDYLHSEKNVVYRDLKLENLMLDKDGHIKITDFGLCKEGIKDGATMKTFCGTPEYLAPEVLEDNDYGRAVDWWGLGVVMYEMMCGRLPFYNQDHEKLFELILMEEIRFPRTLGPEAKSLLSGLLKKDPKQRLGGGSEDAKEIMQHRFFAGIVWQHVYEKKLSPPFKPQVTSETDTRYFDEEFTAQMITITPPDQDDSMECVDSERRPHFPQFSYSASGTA
Akt1 inhibitory activity of compounds of the present invention was quantified employing the Akt1 TR-FRET assay as described in the following paragraphs.
As substrate for the kinase reaction the biotinylated peptide biotin-Ahx-[…] (C-terminus in amide form) was used which can be purchased e.g. from the company Biosynthan GmbH (Berlin-Buch, Germany).
For the assay 50 nl of a 100 fold concentrated solution of the test compound in DMSO was pipetted into a black low volume 384 well microtiter plate (Greiner Bio-One, Frickenhausen, Germany), 2 μl of a solution of Akt1 in assay buffer [50 mM TRIS/HCl pH 7.5, 5 mM MgCl2, 1 mM dithiothreitol, 0.02% (v/v) Triton X-100 (Sigma)] were added and the mixture was incubated for 15 min at 22° C. to allow prebinding of the test compounds to the enzyme before the start of the kinase reaction. […] The concentration of Akt1 in the assay was adjusted depending of the activity of the enzyme lot and was chosen appropriate to have the assay in the linear range, typical enzyme concentrations were in the range of about 0.05 ng/μl (final conc. in the 5 μl assay volume).
The resulting mixture was incubated 1 h at 22° C. to allow the binding of the biotinylated phosphorylated peptide to the streptavidine-XL665 and the antibodies. Subsequently the amount of phosphorylated substrate was evaluated by measurement of the resonance energy transfer from the anti-mouse-IgG-Eu-Chelate to the streptavidine-XL665.
Background: In TR-FRET formats the signal depends on donor and acceptor labels being close together.

Consider `COC(=O)c1cccn2c(-c3ccccc3)c(-c3ccc(C4(N)CCC4)cc3)nc12` [Example 2-23], for which the IC50 (as a rule, the concentration that inhibits the measured activity by half) came out at 9800 nM in test [1], 1010 nM in test [2] and 47 nM in test [3].
On to `NC1(c2ccc(-c3nc4ccc(CO)cn4c3-c3ccccc3)cc2)CCC1` [Example 2-25], for which the IC50 in test [1] is 2300 nM; in test [2], 213 nM; in test [3], 504 nM.
In the same order, the values of `COc1ccc(COc2ccn3c(-c4ccccc4)c(-c4ccc(C5(N)CCC5)cc4)nc3n2)cn1` [Example 2-26] are 1900 nM, 90 nM and 221 nM.
In the same order, the values of `COCCOc1ccn2c(-c3ccccc3)c(-c3ccc(C4(N)CCC4)cc3)nc2n1` [Example 2-27] are 1900 nM, 111 nM and 1190 nM.
In the same order, the values of `COc1cc(COc2ccn3c(-c4ccccc4)c(-c4ccc(C5(N)CCC5)cc4)nc3n2)ccn1` [Example 2-28] are 1800 nM, 114 nM and 179 nM.
Turning to `CCc1cnc2nc(-c3ccc(C4(N)CCC4)cc3)c(-c3ccccc3)n2c1` [Example 2-33], the IC50 was found to be 1000 nM in test [1], 187 nM in test [2] and 379 nM in test [3].
On the same counts, the results for `NC1(c2ccc(-c3nc4cc(-c5ccc(F)cc5)ccn4c3-c3ccccc3)cc2)CCC1` [Example 2-34] are 2200 nM, 1940 nM and 989 nM.
As for `COC(=O)c1ccn2c(-c3ccccc3)c(-c3ccc(C4(N)CCC4)cc3)nc2c1` [Example 2-35], the 50% inhibitory concentration (IC50) was found to be 5000 nM in test [1], 975 nM in test [2] and 226 nM in test [3].
On the same counts, the results for `NC1(c2ccc(-c3nc4cc(C5CC5)ccn4c3-c3ccccc3)cc2)CCC1` [Example 2-37] are 1900 nM, 441 nM and 1640 nM.
In the same order, the values of `CCc1ccc2nc(-c3ccc(C4(N)CCC4)cc3)c(-c3ccccc3)n2c1` [Example 2-38] are 1900 nM, 467 nM and 260 nM.
On the same counts, the results for `NC1(c2ccc(-c3nc4cc(C(=O)N5CCCC5)ccn4c3-c3ccccc3)cc2)CCC1` [Example 2-42] are 9200 nM, 1240 nM and 19400 nM.
For the compound `CCOC(=O)c1cccn2c(-c3ccccc3)c(-c3ccc(C4(N)CCC4)cc3)nc12` [Example 2-43], the IC50 in test [1] was found to be 9200 nM; in test [2], 1340 nM; in test [3] it was 62 nM.
Regarding `NC1(c2ccc(-c3nc4c(C5CC5)cccn4c3-c3ccccc3)cc2)CCC1` [Example 2-47], the figures for the 50% inhibitory concentration (IC50) in test [1], in test [2] and in test [3] were 2000 nM, 339 nM and 140 nM, respectively.
In the same order, the values of `C=Cc1ccc2nc(-c3ccc(C4(N)CCC4)cc3)c(-c3ccccc3)n2c1` [Example 2-48] are 2500 nM, 1030 nM and 300 nM.
With `NC1(c2ccc(-c3nc4c(-c5cn[nH]c5)cccn4c3-c3ccccc3)cc2)CCC1` [Example 2-50], the figures for the IC50 in test [1], in test [2] and in test [3] were 1900 nM, 297 nM and 99 nM, respectively.
In the same order, the values of `NC1(c2ccc(-c3nc4ccc(C(=O)O)cn4c3-c3ccccc3)cc2)CCC1` [Example 2-51] are 10000 nM, 4750 nM and 91 nM.
In the same order, the values of `CC(C)NC(=O)c1ccc2nc(-c3ccc(C4(N)CCC4)cc3)c(-c3ccccc3)n2c1` [Example 2-53] are 2000 nM, 276 nM and 1710 nM.
As for `NC1(c2ccc(-c3nc4ccc(C(=O)NCCF)cn4c3-c3ccccc3)cc2)CCC1` [Example 2-54], the figures for the IC50 in test [1], in test [2] and in test [3] were 1300 nM, 83 nM and 423 nM, respectively.
In the same order, the values of `NC1(c2ccc(-c3nc4ccc(C(=O)NCCO)cn4c3-c3ccccc3)cc2)CCC1` [Example 2-55] are 5500 nM, 308 nM and 1140 nM.
On the same counts, the results for `COCCNC(=O)c1ccc2nc(-c3ccc(C4(N)CCC4)cc3)c(-c3ccccc3)n2c1` [Example 2-56] are 3400 nM, 200 nM and 452 nM.
In the same order, the values of `NC1(c2ccc(-c3nc4ccc(C(=O)NC5CC5)cn4c3-c3ccccc3)cc2)CCC1` [Example 2-57] are 3100 nM, 147 nM and 493 nM.
Regarding `NC1(c2ccc(-c3nc4ccc(C(=O)NCC5CC5)cn4c3-c3ccccc3)cc2)CCC1` [Example 2-58], the values for the half-inhibitory concentration (IC50) in test [1], in test [2] and in test [3] were 1900 nM, 193 nM and 342 nM, respectively.
In the same order, the values of `NC1(c2ccc(-c3nc4ccc(C(=O)NO)cn4c3-c3ccccc3)cc2)CCC1` [Example 2-59] are 3800 nM, 236 nM and 257 nM.
On the same counts, the results for `COC(=O)c1cc(Cl)c2nc(-c3ccc(C4(N)CCC4)cc3)c(-c3ccccc3)n2c1` [Example 2-60] are 7700 nM, 655 nM and 31 nM.
In the case of `CN(C)C(=O)c1ccc2nc(-c3ccc(C4(N)CCC4)cc3)c(-c3ccccc3)n2c1` [Example 2-61], the IC50 came out at 9400 nM in test [1], 781 nM in test [2] and 1900 nM in test [3].
In the case of `CCNC(=O)c1ccc2nc(-c3ccc(C4(N)CCC4)cc3)c(-c3ccccc3)n2c1` [Example 2-62], the IC50 in test [1] worked out at 1700 nM; in test [2], 93 nM; in test [3] it was 376 nM.
Consider `NC1(c2ccc(-c3nc4ccc(C5CC5)cn4c3-c3ccccc3)cc2)CCC1` [Example 2-63], for which the 50% inhibitory concentration (IC50) in test [1] was 2000 nM; in test [2], 256 nM; in test [3] it was 734 nM.
On the same counts, the results for `NC1(c2ccc(-c3nc4nc(OCCN5CCCC5=O)ccn4c3-c3ccccc3)cc2)CCC1` [Example 2-64] are 3200 nM, 203 nM and 1660 nM.
In the same order, the values of `NC(=O)C1(COc2ccn3c(-c4ccccc4)c(-c4ccc(C5(N)CCC5)cc4)nc3n2)CC1` [Example 2-65] are 10000 nM, 3840 nM and 1070 nM.
In the same order, the values of `NC1(c2ccc(-c3nc4cc(Cl)ccn4c3-c3ccccc3)cc2)CCC1` [Example 2-66] are 1800 nM, 134 nM and 113 nM.
For the compound `NC1(c2ccc(-c3nc4ccccn4c3-c3ccccc3)cc2)CCC1` [Example 2-106, 1-[4-(3-phenyl-imidazo[1,2-a]pyridin-2-yl)-phenyl]-cyclobutylamine], the values for the IC50 in test [1], in test [2] and in test [3] were 2100 nM, 202 nM and 151 nM, respectively.
As to `CCOc1ccc2nc(-c3ccc(C4(N)CCC4)cc3)c(-c3ccccc3)n2c1` [Example 2-107, 1-[4-(6-ethoxy-3-phenyl-imidazo[1,2-a]pyridin-2-yl)-phenyl]-cyclobutylamine], the results for the IC50 in test [1], in test [2] and in test [3] were 1700 nM, 253 nM and 204 nM, respectively.
